Laboratory results reported in US7202280B2, “Methods for the treatment and prevention of pancreatitis and for induction of liver regeneration” (priority 2002, dated 2007).
Where “and” joins values, the source holds several entries; their conditions need not be identical. Equal entries are not always repeated.

Columns and labels:
Assay type in all cases: in vivo, rat
[1] = test system: SSAT transgenic rats (UKUR30); assay: Treatment of zinc induced acute pancreatitis in SSAT transgenic rats: survival and severity (histology, plasma amylase, mortality); design: key to Edema: 0 (absent); 1 (minimal); 4 (maximal); details: for Edema / Necr. / P-amyl: single animals
Description: Formalin-fixed pancreatic specimens were embedded in paraffin, cut into 5-μm-thick slices, and stained with hematoxylin/eosin. The stained sections were coded and scored by the participating gastroenterologist (K.-H. H.) according to the method of Niederau et al. (Niederau, C., Liddle, R. A., Ferrell, L. D., and Grendell, J. H. (1986) J. Clin. Invest. 78, 1056–1063).
Transgenic UKUR30 female rats (weighting about 200 g) were used for the experiments. Pancreatitis was initiated with zinc 10 mg/kg treatment. Experiments were separated in five different parts (Exp. 1–5). Animals treated with α-MeSPD received 50 mg/kg i.p at the indicated time point(s). The pooled data from all of the experiment is shown in tables 4 A/B/C/D. First histological signs of pancreatic failure were evident within 6 h after the zinc. Pancreatic failure steadily increases until 24 hours when the first animals died. Within 48 hours mortality was almost 70% in control zinc treated rats.
Tables 4 A/B/C/D present the natural course of zinc induced pancreatitis. Histological scoring along with plasma amylase activity is shown as a measure of severity of pancreatitis. Tissue zinc and polyamine levels and SSAT activity were determined to verify the response of each animal to the treatment. No other data than the number of death animals is shown from deceased animals. Transgenic UKUR30 female rats weighting about 200 grams were used for the experiment. Zinc was injected i.p. 10 mg/kg to initiate acute pancreatitis. Animals treated with MeSpd received one 50 mg/kg dosage i.p. at the indicated time point(s). At indicated time points live animals were sacrificed and pancreas was subjected to further analysis. […] Values for polyamines are expressed as pmoles/mg/wet weight. SSAT pmoles/10 min/mg wet weight.

[2] = test system: rats with cerulein-induced pancreatitis; assay: Cerulein-induced pancreatitis
Description: FIG. 7 Effect of pancreatic-associated edema by methylspermidine in rats with cerulein-induced pancreatitis. The animals received cerulein 24 h before sacrifice with or without methylspermidine (50 mg/kg) as a single dose 4 h before cerulein. Three to five animals in each group. Me-Spd, methylspermidine. Administration of cerulein induces a non-necrotizing pancreatitis in rodents. Cerulein-induced pancreatitis is characterized by a pronounced increase in plasma/serum amylase activity.

[3] = test system: syngenic and transgenic rats; assay: Pancreatic SSAT activity and polyamine pools after zinc and methylspermidine
Description: FIGS. 1a-1d. Pancreatic polyamine pools in syngenic and transgenic rats after zinc and methylspermidine. […] Three to five animals in each group. Me-spd, methylspermidine. The production of transgenic Wistar rats (UKUR30) and mice (UKU181) harboring metallothionein-SSAT fusion gene (Suppola, […]., Porter, C. W., and Jänne, J. (1999) Biochem. […] (2000) Proc. Natl. Acad. Sci. U.S.A. 97, 8290-8295; Lukkarinen, […]., and Alhonen, L. (1997) Stroke 28, 639-645). Partial hepatectomy was carried out according to the original method of Higgins and Anderson (Higgins, G. H., and Anderson, R. M. (1931) Arch. Pathol. 12, 186-202). Treatments before partial hepatectomy and the determination of DNA synthesis were carried out as in ([…]., Suppola, […]., and […]. Biol. Chem. 277, 39867-39872). Transgenic 10 weeks old male rats were injected twice with MDL72527 (50 mg/kg i.p.) at 16-h interval to inactivate PAO according to (Bolkenius, F. N., Bey, P., and Seiler, N. (1985) Biochim. Biophys. […] An aliquot of the homogenates was used for the polyamine assays. The homogenates were centrifuged (at 13 000×g, for 30 min, at 4° C.) and the supernatants were used for the enzyme activity assays. The Institutional Animal Care and Use Committee of the University of Kuopio and by the Provincial Government approved animal experiments. […] Merck (Darmstadt, Germany). […] The changes in pancreatic polyamine pools in response to zinc and methylspermidine are depicted in FIG. 1. […] The various treatments only marginally altered pancreatic putrescine pools (FIG. 1a). […] FIG. 1d depicts the accumulation of the analogue in the pancreas after a single dose or two doses.

[4] = Zn 24 h, MeSpd 50 mg/kg i.p. at 3 h/8 h
[5] = Zn 24 h, MeSpd 50 mg/kg i.p. at 6 h/12 h
[6] = Zn 24 h, MeSpd 50 mg/kg i.p. at 12 h
[7] = Zn 48 h, MeSpd 50 mg/kg i.p. at 3 h/8 h
[8] = Zn 48 h, MeSpd 50 mg/kg i.p. at 4 h/24 h
[9] = Zn 48 h, MeSpd 50 mg/kg i.p. at 12 h/24 h

CC(N)CCNCCCCN (stereo not drawn) [α-methylspermidine, 1-methylspermidine]
Edema [1, 4]: 0 (2×) and 2 (2×)
Necr. [1, 4]: 0 (0, 0–5%) (2×) and 3 (3, 35–50%) and 4 (4, >50%)
P-amyl [1, 4]: 2743 U/l and 20380 U/l and 11420 U/l and 2801 U/l
Edema [1, 5]: 0 (3×) and 1 (2×) and 2 (2×) and 3 and 4
Necr. [1, 5]: 0 (0, 0–5%) (4×) and 4 (4, >50%) (4×) and 2 (2, 15–35%)
P-amyl [1, 5]: 2686 U/l and 2153 U/l and 2572 U/l and 30970 U/l and 42250 U/l and 30860 U/l and 28400 U/l and 5110 U/l and 25050 U/l
Edema [1, 6]: 1 and 2 (2×) and 3
Necr. [1, 6]: 0 (0, 0–5%) and 4 (4, >50%) (2×) and 3 (3, 35–50%)
P-amyl [1, 6]: 3048 U/l and 17170 U/l and 31310 U/l and 18960 U/l
Mortality % ([1]; Zn 24 h, MeSpd treatment yes): 0%
Number of death animals ([1]; Zn 24 h, MeSpd treatment yes, 17 animals): 0
Edema [1, 7]: 3 (2×) and 2
Necr. [1, 7]: 4 (4, >50%)
P-amyl [1, 7]: 5867 U/l and 5117 U/l and 29880 U/l
Edema [1, 8]: 0 (3×) and 1 and 3
Necr. [1, 8]: 0 (0, 0–5%) (4×) and 4 (4, >50%)
P-amyl [1, 8]: 1924 U/l and 2740 U/l and 2908 U/l and 2591 U/l and 3943 U/l
Edema [1, 9]: 3 (2×) and 0 and 2
Necr. [1, 9]: 4 (4, >50%) (3×) and 0 (0, 0–5%)
P-amyl [1, 9]: 86840 U/l and 2693 U/l and 36470 U/l and 3382 U/l
Mortality % ([1]; Zn 48 h, MeSpd treatment yes): 8%
amylase levels ([2]; cerulein-induced pancreatitis): does not normalize amylase levels
pancreatitis-associated edema ([2]; cerulein, single dose 50 mg/kg): reduces the pancreatitis-associated edema
accumulation of the analogue in the pancreas ([3]; single dose or two doses of 50 mg/kg): effectively accumulated in the pancreas apparently with no further metabolism
SSAT activity, Pancreas ([3]; syngenic rats, zinc 10 mg/kg with methylspermidine 50 mg/kg): did not influence SSAT activity
SSAT activity, Pancreas ([3]; transgenic rats, analogue with zinc vs zinc alone): only slightly increased SSAT activity
Pancreatic spermidine pool ([3]; transgenic rats, zinc 10 mg/kg): little effect on zinc-induced depletion of spermidine
